Assay results reported in the kinase profiling compilation of Christmann-Franck et al. (2016).

How the values were obtained:
Assay in all cases: KINOMEscan competition binding
Details in all cases: compound 10.0 µM
MTOR (human) = MTOR (human) (UniProt P42345)
CDK13 (human) = CDK13 (human) (UniProt Q14004)
PIP5K1C (human) = PIP5K1C (human) (UniProt O60331)
ERN1 (human) = ERN1 (human) (UniProt O75460)
CDK2 (human) = CDK2 (human) (UniProt P24941)
MAP3K2 (human) = MAP3K2 (human) (UniProt Q9Y2U5)
SGK3 (human) = SGK3 (human) (UniProt Q96BR1)
ERBB3 (human) = ERBB3 (human) (UniProt P21860)
NEK4 (human) = NEK4 (human) (UniProt P51957)
HUNK (human) = HUNK (human) (UniProt P57058)
RPS6KB1 (human) = RPS6KB1 (human) (UniProt P23443)
[1] = tested on: ABL1 (human), P00519 [E255K]
MET (human) = MET (human) (UniProt P08581)
SBK1 (human) = SBK1 (human) (UniProt Q52WX2)
YSK4 (human) = YSK4 (human) (UniProt Q56UN5)
CASK (human) = CASK (human) (UniProt O14936)
MYLK3 (human) = MYLK3 (human) (UniProt Q32MK0)
[2] = tested on: KIT (human), P10721 [V559D/T670I]
STK32A (human) = STK32A (human) (UniProt Q8WU08)
PI4KB (human) = PI4KB (human) (UniProt Q9UBF8)
STK39 (human) = STK39 (human) (UniProt Q9UEW8)
EGFR (human) = EGFR (human) (UniProt P00533)
PIP4K2C (human) = PIP4K2C (human) (UniProt Q8TBX8)
CSNK1A1 (human) = CSNK1A1 (human) (UniProt P48729)
HIPK4 (human) = HIPK4 (human) (UniProt Q8NE63)
[3] = tested on: PIK3CA (human), P42336 [Q546K]
[4] = tested on: PIK3CA (human), P42336 [E545A]
TRPM6 (human) = TRPM6 (human) (UniProt Q9BX84)
ROCK1 (human) = ROCK1 (human) (UniProt Q13464)
CDK4 CCND1 (human) = CDK4 CCND1 (human) (UniProt P11802+P24385)
MAP3K13 (human) = MAP3K13 (human) (UniProt O43283)
[5] = tested on: FLT3 (human), P36888 [K663Q]
[6] = tested on: EGFR (human), P00533 [P753S; 747-752 del]
CDKL5 (human) = CDKL5 (human) (UniProt O76039)
MAK (human) = MAK (human) (UniProt P20794)
NEK11 (human) = NEK11 (human) (UniProt Q8NG66)
EPHB6 (human) = EPHB6 (human) (UniProt O15197)
IRAK4 (human) = IRAK4 (human) (UniProt Q9NWZ3)
MAP3K15 (human) = MAP3K15 (human) (UniProt Q6ZN16)
[7] = tested on: EGFR (human), P00533 [746-750 del]

Sequence of RPS6KB1 (human) (P23443 whole entry, looked up): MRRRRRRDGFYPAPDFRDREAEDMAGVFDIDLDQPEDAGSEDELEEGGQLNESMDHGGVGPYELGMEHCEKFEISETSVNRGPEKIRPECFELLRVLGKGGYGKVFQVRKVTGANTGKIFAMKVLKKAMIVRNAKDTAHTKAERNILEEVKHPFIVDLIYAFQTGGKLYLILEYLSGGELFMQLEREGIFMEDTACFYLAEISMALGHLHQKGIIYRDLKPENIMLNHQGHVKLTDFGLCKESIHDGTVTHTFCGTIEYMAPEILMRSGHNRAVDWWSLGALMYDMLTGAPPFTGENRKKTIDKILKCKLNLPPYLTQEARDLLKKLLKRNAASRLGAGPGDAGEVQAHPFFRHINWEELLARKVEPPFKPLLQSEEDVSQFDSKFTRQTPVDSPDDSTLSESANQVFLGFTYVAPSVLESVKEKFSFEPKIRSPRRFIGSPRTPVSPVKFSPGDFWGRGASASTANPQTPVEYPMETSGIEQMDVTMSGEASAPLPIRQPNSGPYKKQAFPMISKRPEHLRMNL
Sequence of IRAK4 (human) (Q9NWZ3 whole entry, looked up): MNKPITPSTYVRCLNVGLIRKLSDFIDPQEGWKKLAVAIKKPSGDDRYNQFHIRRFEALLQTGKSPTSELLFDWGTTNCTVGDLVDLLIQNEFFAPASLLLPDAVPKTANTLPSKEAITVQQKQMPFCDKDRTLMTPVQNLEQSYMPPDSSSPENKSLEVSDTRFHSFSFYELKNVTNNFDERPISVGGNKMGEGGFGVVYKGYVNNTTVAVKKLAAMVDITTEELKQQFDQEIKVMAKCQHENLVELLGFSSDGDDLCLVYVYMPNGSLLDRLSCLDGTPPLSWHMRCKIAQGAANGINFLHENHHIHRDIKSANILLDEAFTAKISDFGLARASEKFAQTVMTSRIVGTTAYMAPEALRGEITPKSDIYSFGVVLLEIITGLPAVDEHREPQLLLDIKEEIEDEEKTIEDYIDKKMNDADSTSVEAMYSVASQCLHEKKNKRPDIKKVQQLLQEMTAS
Sequence of MYLK3 (human) (Q32MK0 whole entry, looked up): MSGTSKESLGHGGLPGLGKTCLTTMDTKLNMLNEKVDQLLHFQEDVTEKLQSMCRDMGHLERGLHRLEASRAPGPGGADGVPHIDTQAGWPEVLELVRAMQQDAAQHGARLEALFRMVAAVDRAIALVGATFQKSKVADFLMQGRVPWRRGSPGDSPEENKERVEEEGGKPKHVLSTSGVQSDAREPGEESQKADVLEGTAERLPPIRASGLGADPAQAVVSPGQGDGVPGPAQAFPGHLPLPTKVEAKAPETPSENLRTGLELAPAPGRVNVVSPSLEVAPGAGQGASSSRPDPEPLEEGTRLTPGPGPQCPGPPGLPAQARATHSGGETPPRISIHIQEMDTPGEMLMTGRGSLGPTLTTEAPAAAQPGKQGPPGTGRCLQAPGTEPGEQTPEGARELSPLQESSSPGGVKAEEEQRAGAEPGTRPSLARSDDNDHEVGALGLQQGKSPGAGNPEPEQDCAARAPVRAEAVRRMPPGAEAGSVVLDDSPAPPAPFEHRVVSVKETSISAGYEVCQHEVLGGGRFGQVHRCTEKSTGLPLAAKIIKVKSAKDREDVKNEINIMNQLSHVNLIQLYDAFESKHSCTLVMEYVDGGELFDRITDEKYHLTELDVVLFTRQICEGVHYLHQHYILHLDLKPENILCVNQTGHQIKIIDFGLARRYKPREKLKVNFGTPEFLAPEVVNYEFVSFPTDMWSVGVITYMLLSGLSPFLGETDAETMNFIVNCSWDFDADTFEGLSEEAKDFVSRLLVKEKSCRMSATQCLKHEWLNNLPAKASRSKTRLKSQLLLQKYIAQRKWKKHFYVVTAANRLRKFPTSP
Sequence of MAK (human) (P20794 whole entry, looked up): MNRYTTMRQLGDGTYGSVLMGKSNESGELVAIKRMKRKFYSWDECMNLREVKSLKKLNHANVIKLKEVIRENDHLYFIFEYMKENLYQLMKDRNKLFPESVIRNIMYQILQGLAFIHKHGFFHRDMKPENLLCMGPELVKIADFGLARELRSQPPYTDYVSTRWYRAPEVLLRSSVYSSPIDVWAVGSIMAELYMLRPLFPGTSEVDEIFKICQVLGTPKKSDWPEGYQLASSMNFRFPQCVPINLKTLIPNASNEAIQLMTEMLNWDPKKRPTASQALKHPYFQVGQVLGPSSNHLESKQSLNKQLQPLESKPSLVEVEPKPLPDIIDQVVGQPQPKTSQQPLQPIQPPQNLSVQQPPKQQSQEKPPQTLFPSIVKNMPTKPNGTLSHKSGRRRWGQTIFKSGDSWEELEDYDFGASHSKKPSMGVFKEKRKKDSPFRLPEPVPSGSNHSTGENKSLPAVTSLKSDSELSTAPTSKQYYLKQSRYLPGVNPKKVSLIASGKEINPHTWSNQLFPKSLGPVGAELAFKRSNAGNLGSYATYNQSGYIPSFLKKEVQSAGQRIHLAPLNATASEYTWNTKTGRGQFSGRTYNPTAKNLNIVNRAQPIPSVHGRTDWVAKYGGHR
Sequence of NEK4 (human) (P51957 whole entry, looked up): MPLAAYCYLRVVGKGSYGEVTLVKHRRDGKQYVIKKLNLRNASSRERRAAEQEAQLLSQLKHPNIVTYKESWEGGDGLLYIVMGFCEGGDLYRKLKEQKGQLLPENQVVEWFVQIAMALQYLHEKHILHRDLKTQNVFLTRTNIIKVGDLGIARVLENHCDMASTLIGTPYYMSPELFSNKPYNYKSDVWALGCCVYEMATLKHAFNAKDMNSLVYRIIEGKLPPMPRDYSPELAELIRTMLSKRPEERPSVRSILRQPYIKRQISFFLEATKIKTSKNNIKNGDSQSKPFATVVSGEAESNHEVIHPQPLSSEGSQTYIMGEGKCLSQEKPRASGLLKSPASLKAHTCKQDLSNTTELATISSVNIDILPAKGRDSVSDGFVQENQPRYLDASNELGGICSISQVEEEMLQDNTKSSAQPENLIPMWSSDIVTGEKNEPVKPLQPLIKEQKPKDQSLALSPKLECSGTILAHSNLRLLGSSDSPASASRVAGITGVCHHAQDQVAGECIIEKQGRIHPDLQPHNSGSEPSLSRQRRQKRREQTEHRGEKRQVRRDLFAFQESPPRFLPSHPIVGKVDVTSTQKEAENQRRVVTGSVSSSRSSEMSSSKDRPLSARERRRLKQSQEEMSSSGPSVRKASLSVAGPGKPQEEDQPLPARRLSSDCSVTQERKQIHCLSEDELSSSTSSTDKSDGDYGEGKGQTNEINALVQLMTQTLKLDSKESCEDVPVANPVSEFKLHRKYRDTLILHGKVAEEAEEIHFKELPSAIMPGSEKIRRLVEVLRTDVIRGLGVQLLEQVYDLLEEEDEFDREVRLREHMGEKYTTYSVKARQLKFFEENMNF
Sequence of MAP3K15 (human) (Q6ZN16 whole entry, looked up): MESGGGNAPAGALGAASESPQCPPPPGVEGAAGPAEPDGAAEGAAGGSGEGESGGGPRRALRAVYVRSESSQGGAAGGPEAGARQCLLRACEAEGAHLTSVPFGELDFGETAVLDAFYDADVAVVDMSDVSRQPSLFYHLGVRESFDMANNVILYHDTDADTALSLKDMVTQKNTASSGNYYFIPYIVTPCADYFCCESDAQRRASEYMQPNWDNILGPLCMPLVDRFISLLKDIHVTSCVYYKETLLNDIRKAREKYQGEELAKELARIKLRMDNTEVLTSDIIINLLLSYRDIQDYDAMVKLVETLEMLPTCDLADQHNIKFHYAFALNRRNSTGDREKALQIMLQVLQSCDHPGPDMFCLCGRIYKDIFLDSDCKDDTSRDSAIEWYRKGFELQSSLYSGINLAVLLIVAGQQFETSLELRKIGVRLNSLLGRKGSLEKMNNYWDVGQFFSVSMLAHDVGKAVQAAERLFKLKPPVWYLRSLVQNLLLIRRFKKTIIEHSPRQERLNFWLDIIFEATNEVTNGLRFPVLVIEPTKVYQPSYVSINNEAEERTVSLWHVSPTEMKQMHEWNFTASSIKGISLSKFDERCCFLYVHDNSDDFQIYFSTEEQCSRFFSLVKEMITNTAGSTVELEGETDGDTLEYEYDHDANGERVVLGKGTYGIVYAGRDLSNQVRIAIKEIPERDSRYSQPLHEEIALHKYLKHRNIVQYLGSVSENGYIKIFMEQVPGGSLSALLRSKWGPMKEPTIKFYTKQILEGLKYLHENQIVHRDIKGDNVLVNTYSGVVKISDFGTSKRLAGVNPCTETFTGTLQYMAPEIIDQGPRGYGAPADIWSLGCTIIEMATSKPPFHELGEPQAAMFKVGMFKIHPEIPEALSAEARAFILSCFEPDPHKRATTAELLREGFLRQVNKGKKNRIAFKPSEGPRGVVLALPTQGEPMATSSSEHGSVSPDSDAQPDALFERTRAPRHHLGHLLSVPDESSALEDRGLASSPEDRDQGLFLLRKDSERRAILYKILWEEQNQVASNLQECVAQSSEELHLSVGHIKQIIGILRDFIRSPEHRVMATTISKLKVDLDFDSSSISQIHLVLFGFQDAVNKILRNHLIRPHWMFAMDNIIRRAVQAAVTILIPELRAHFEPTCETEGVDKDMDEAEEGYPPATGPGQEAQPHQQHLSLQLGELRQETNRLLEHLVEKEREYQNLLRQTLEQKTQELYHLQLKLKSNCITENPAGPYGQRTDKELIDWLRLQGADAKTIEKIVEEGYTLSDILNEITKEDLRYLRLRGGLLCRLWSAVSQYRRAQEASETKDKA
Sequence of SBK1 (human) (Q52WX2 whole entry, looked up): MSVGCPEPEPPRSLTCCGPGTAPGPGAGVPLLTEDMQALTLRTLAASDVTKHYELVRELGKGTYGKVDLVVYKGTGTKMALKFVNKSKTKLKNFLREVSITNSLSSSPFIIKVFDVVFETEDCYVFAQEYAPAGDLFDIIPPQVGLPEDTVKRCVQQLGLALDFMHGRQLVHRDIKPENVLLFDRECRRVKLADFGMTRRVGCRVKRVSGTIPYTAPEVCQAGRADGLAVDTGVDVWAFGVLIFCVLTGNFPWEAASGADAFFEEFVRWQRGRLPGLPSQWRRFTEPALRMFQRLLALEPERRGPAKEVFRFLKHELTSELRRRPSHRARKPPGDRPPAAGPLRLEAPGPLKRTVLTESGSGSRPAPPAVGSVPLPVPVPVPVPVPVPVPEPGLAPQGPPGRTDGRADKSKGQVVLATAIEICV

SMILES | kinase still bound, per cent of control (MTOR (human)) | kinase still bound, per cent of control (CDK13 (human)) | kinase still bound, per cent of control (PIP5K1C (human)) | kinase still bound, per cent of control (ERN1 (human)) | kinase still bound, per cent of control (CDK2 (human)) | kinase still bound, per cent of control (MAP3K2 (human)) | kinase still bound, per cent of control (SGK3 (human)) | kinase still bound, per cent of control (ERBB3 (human)) | kinase still bound, per cent of control (NEK4 (human)) | kinase still bound, per cent of control (HUNK (human)) | kinase still bound, per cent of control (RPS6KB1 (human)) | kinase still bound, per cent of control (MET (human)) | kinase still bound, per cent of control (SBK1 (human)) | kinase still bound, per cent of control (YSK4 (human)) | kinase still bound, per cent of control (CASK (human)) | kinase still bound, per cent of control (MYLK3 (human)) | kinase still bound, per cent of control (STK32A (human)) | kinase still bound, per cent of control (PI4KB (human)) | kinase still bound, per cent of control (STK39 (human)) | kinase still bound, per cent of control (EGFR (human)) | other results
Cc1ccc(NC(=O)c2cccc(C(C)(C)C#N)c2)cc1Nc1ccc2ncn(C)c(=O)c2c1 | 100% | 100% | 75% | 86% | 100% | 88% | 100% | 100% | 89% | 100% | 100% | 89% | 79% | 0.85% | 96% | 100% | 100% | 82% | 100% | 37% | kinase still bound, per cent of control [1]: 3.4%; kinase still bound, per cent of control [2]: 0.35%; kinase still bound, per cent of control (PIP4K2C (human)): 100%; kinase still bound, per cent of control (CSNK1A1 (human)): 100%; kinase still bound, per cent of control (HIPK4 (human)): 92%; kinase still bound, per cent of control [3]: 88%; kinase still bound, per cent of control [4]: 89%; kinase still bound, per cent of control (TRPM6 (human)): 100%; kinase still bound, per cent of control (ROCK1 (human)): 92%; kinase still bound, per cent of control (CDK4 CCND1 (human)): 61%; kinase still bound, per cent of control (MAP3K13 (human)): 100%; kinase still bound, per cent of control [5]: 22%; kinase still bound, per cent of control [6]: 19%; kinase still bound, per cent of control (CDKL5 (human)): 93%; kinase still bound, per cent of control (MAK (human)): 100%; kinase still bound, per cent of control (NEK11 (human)): 94%; kinase still bound, per cent of control (EPHB6 (human)): 2.4%; kinase still bound, per cent of control (IRAK4 (human)): 83%; kinase still bound, per cent of control (MAP3K15 (human)): 100%; kinase still bound, per cent of control [7]: 15%
C=CC(=O)Nc1cc(NC(=O)c2ccc(C)c(NC(=O)c3ccno3)c2)cc(C(F)(F)F)c1 | 97% | 100% | 100% | 90% | 100% | 100% | 100% | 100% | 84% | 100% | 87% | 100% | 100% | 74% | 83% | 91% | 100% | 88% | 86% | 79% | kinase still bound, per cent of control [1]: 86%; kinase still bound, per cent of control [2]: 77%; kinase still bound, per cent of control (PIP4K2C (human)): 90%; kinase still bound, per cent of control (CSNK1A1 (human)): 100%; kinase still bound, per cent of control (HIPK4 (human)): 100%; kinase still bound, per cent of control [3]: 78%; kinase still bound, per cent of control [4]: 86%; kinase still bound, per cent of control (TRPM6 (human)): 100%; kinase still bound, per cent of control (ROCK1 (human)): 100%; kinase still bound, per cent of control (CDK4 CCND1 (human)): 100%; kinase still bound, per cent of control (MAP3K13 (human)): 98%; kinase still bound, per cent of control [5]: 100%; kinase still bound, per cent of control [6]: 79%; kinase still bound, per cent of control (CDKL5 (human)): 100%; kinase still bound, per cent of control (MAK (human)): 84%; kinase still bound, per cent of control (NEK11 (human)): 100%; kinase still bound, per cent of control (EPHB6 (human)): 81%; kinase still bound, per cent of control (IRAK4 (human)): 99%; kinase still bound, per cent of control (MAP3K15 (human)): 77%; kinase still bound, per cent of control [7]: 81%
O=C(O)c1ccc(Nc2ncc3c(n2)-c2ccc(Cl)cc2C(c2c(F)cccc2F)=NC3)cc1 | 75% | 100% | 49% | 100% | 84% | 100% | 100% | 74% | 66% | 59% | 54% | 49% | 100% | 62% | 91% | 100% | 54% | 100% | 100% | 43% | kinase still bound, per cent of control (PIP4K2C (human)): 26%; kinase still bound, per cent of control (CSNK1A1 (human)): 73%; kinase still bound, per cent of control (HIPK4 (human)): 31%; kinase still bound, per cent of control [3]: 14%; kinase still bound, per cent of control [4]: 20%; kinase still bound, per cent of control (TRPM6 (human)): 100%; kinase still bound, per cent of control (ROCK1 (human)): 63%; kinase still bound, per cent of control (CDK4 CCND1 (human)): 98%; kinase still bound, per cent of control (MAP3K13 (human)): 100%; kinase still bound, per cent of control [5]: 68%; kinase still bound, per cent of control [6]: 28%; kinase still bound, per cent of control (CDKL5 (human)): 100%; kinase still bound, per cent of control (MAK (human)): 78%; kinase still bound, per cent of control (NEK11 (human)): 100%; kinase still bound, per cent of control (EPHB6 (human)): 41%; kinase still bound, per cent of control (IRAK4 (human)): 100%; kinase still bound, per cent of control (MAP3K15 (human)): 82%; kinase still bound, per cent of control [7]: 28%
